For one data set, the target named is T1, Aurora-B (Homo sapiens, UniProt Q96GD4).
T1 construct: in some cases as full-length kinases, in some cases as truncated fragments; purchased Upstate/Millipore #14-835
Put plainly: Cell-free kinase assay (ALPHA technology), Aurora-B. The class given is biochemical. How it is done:
The kinase reaction was stopped by adding 10 μl of the ALPHA bead mix (10 μg/ml, #6760617/PerkinElmer), pre-incubated with anti-phospho PLK antibody (100 pM, #5070, Cell Signaling), in 25 mM Tris, 200 mM NaCl, 100 mM EDTA and 0.3% BSA, and left to stand overnight. The luminiscence was detected the next morning in a Envision instrument (Perkin Elmer). […] 0% controls contained no ATP whereas the 100% controls contained no test substance. The IC50 values were determined with GraphPadPrism.

The target in a further data set is cRaf-Mek1-Erk2 (Homo sapiens, UniProt P04049+P28482+Q02750). The conditions noted are these: read-out: IC50 cRaf-Mek-Erk; at 10 μM ATP. How it is done: The inhibitory effect of the inventive compounds was tested on various human serine/threonine kinases and tyrosine kinases in enzymatic assays. Recombinant human kinases, for example Aurora-B, cRaf-Mek1-Erk2, Erk2, Pim-1, HIPK1, KDR, TrkA, Yes, c-Abl and others were used, in some cases as full-length kinases, in some cases as truncated fragments—but at least consisting of the functional kinase domains. The commercial kinase proteins (Proqinase, Millipore) were used as recombinant fusion proteins with GST (glutathione S-transferase) tag or His tag. Depending on the substrate type, the different kinase reactions were quantified by suitable ALPHA™ beads (PerkinElmer).
The calculation of % inhibition values per substance concentration was done by means of the following formula from the raw data determined in the Envision reader:
(§1) The controls were determined 16 fold. 0% controls contained no ATP whereas the 100% controls contained no test substance. The IC50 values were determined with GraphPadPrism.

The target of a further data set is T2, Erk2 (Homo sapiens, UniProt P28482).
T2 construct: in some cases as full-length kinases, in some cases as truncated fragments
In words: Cell-free kinase assay (ALPHA technology), Erk2. The class given is biochemical. The settings on record: at 10 μM ATP. How it is done: as §1

Where [1] appears, read: at 10 μM ATP, read-out: IC50 Aurora-B.

Molecules are shown by their SMILES. Like-named read-outs stand apart in the source and are kept apart here.

T1 sequence (Q96GD4 whole entry, the tested form may be a part): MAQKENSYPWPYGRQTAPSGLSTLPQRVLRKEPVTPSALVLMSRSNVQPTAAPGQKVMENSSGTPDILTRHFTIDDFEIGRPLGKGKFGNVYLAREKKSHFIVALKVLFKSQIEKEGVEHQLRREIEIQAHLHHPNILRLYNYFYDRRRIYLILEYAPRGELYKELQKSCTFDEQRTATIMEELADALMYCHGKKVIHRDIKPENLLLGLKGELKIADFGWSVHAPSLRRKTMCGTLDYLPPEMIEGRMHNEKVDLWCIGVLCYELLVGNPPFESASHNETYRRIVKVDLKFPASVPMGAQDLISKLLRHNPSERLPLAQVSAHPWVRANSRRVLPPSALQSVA
Sequence of cRaf-Mek1-Erk2 (P04049 whole entry, the tested form may be a part): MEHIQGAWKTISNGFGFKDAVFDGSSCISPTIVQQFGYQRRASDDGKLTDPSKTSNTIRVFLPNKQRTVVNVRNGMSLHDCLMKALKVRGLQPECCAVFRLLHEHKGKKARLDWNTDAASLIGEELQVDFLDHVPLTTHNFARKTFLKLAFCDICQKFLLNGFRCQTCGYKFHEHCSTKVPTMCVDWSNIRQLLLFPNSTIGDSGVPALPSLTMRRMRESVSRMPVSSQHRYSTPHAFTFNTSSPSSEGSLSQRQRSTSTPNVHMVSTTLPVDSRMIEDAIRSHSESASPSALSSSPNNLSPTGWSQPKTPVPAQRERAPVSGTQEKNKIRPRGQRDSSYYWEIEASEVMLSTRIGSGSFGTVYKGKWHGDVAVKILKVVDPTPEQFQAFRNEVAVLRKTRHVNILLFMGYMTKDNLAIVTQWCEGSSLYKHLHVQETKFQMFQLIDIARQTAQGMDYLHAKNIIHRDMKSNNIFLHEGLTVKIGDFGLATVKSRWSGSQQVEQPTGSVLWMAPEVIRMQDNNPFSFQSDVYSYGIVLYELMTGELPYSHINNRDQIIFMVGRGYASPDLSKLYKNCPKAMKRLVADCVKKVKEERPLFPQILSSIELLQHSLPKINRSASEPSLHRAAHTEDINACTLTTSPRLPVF
Sequence of cRaf-Mek1-Erk2 (Q02750 whole entry, the tested form may be a part): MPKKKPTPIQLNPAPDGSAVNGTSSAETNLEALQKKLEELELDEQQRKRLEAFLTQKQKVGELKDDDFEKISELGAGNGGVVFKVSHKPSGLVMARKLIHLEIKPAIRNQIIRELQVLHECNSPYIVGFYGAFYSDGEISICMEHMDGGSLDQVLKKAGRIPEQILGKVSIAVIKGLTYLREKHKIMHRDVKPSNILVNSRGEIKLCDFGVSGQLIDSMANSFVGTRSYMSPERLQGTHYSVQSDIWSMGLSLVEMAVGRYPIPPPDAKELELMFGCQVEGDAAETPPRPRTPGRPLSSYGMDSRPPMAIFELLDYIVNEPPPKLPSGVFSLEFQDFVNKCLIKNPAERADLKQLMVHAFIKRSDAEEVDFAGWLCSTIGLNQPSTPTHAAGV
Sequence of cRaf-Mek1-Erk2 (P28482 2-360): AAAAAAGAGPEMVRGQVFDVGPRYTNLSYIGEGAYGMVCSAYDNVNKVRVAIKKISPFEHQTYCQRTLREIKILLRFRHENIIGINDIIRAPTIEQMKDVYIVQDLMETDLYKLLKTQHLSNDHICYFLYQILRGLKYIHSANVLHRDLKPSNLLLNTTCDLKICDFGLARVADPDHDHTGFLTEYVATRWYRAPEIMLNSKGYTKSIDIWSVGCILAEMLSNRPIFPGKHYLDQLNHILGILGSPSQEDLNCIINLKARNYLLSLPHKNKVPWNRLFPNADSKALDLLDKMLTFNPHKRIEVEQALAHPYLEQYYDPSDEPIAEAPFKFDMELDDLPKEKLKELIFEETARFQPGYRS
T2 sequence (P28482 whole entry, the tested form may be a part): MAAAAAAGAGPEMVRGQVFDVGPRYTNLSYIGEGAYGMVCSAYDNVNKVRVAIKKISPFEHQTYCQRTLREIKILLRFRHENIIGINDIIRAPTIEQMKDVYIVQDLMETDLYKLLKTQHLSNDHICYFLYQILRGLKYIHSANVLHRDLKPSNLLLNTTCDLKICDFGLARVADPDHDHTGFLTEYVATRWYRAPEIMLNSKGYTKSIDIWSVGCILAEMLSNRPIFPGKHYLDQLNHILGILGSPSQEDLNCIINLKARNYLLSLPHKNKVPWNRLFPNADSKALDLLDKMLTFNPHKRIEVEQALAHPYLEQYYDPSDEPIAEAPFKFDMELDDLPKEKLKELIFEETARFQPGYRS

`Cn1cc(-c2cnc3c(NC(=O)NCC(F)(F)F)ccnc3c2)cn1` [Compound 20, 1-[7-(1-Methyl-1H-pyrazol-4-yl)-[1,5]naphthyridin-4-yl]-3-(2,2,2-trifluoro-ethyl)-urea] came in with a melting point greater than 300 °C. Further, the IC50 on Aurora-B (setting [1]) stood at 0.129 µM. Besides, the half-maximal inhibitory concentration (IC50) at cRaf-Mek1-Erk2 amounted to 27.3 µM. The IC50 against Erk2 is greater than 100 µM.

In turn, `Cn1cc(-c2cnc3c(NC(=O)NCCCCc4ccccc4)ccnc3c2)cn1` [Compound 21, 1-[7-(1-Methyl-1H-pyrazol-4-yl)-[1,5]naphthyridin-4-yl]-3-(4-phenyl-butyl)-urea] showed a melting point of 185 to 186 °C. Also, the IC50 at Aurora-B (setting [1]) was 0.141 µM. In addition, at cRaf-Mek1-Erk2, the 50% inhibitory concentration (IC50) was found to be 16.9 µM. This compound also came in with a concentration for half-maximal inhibition (IC50) against Erk2 greater than 31.6 µM.

For `Cn1cc(-c2cnc3c(NC(=O)NC4CCCCC4)ccnc3c2)cn1` [Compound 22, 1-Cyclohexyl-3-[7-(1-methyl-1H-pyrazol-4-yl)-[1,5]naphthyridin-4-yl]-urea], the melting point was in the range of 200 to 201 °C. Moreover, the IC50 at Aurora-B (setting [1]) stood at 0.354 µM. Besides, the half-inhibitory concentration (IC50) on cRaf-Mek1-Erk2 is greater than 31.6 µM. For the same compound, the IC50 against Erk2 was greater than 100 µM.

Consider `Cn1cc(-c2cnc3c(NC(=O)Nc4ccccc4)ccnc3c2)cn1` [Compound 23, 1-[7-(1-Methyl-1H-pyrazol-4-yl)-[1,5]naphthyridin-4-yl]-3-phenyl-urea], for which the melting point was 294 to 295 °C. In addition, the IC50 on Aurora-B (setting [1]) was found to be 1.26 µM. Besides, the half-maximal inhibitory concentration (IC50) at cRaf-Mek1-Erk2 is greater than 100 µM. The compound further came in with a 50% inhibitory concentration (IC50) against Erk2 greater than 100 µM.

As to `Cn1cc(-c2cnc3c(NC(=O)NC4CC(F)(F)C4)ccnc3c2)cn1` [Compound 24, 1-(3,3-Difluoro-cyclobutyl)-3-[7-(1-methyl-1H-pyrazol-4-yl)-[1,5]naphthyridin-4-yl]-urea], the melting point is 229 to 230 °C. For the same compound, the IC50 at Aurora-B (setting [1]) turned out to be 0.784 µM. Moreover, the IC50 at cRaf-Mek1-Erk2 was 26.2 µM. This compound gave an IC50 at Erk2 greater than 100 µM.

In turn, `CCCCCCNC(=O)Nc1ccnc2cc(-c3cnn(C)c3)cnc12` [Compound 25, 1-Hexyl-3-[7-(1-methyl-1H-pyrazol-4-yl)-[1,5]naphthyridin-4-yl]-urea] showed a melting point of 188 to 189 °C. Besides, the half-inhibitory concentration (IC50) at Aurora-B (setting [1]) was 0.885 µM. In addition, the half-inhibitory concentration (IC50) on cRaf-Mek1-Erk2 was greater than 100 µM. Moreover, the IC50 on Erk2 was greater than 100 µM.

On to `Cn1cc(-c2cnc3c(NC(=O)NCc4ccccc4)ccnc3c2)cn1` [Compound 31, 1-Benzyl-3-[7-(1-methyl-1H-pyrazol-4-yl)-[1,5]naphthyridin-4-yl]-urea], for which the melting point is 237 to 238 °C. In addition, the IC50 at Aurora-B (setting [1]) was determined as 0.066 µM. For the same compound, on cRaf-Mek1-Erk2, the IC50 is greater than 100 µM. Moreover, the 50% inhibitory concentration (IC50) on Erk2 is greater than 100 µM.

`CCCCNC(=O)Nc1ccnc2cc(-c3cnn(C)c3)cnc12` [Compound 32, 1-Butyl-3-[7-(1-methyl-1H-pyrazol-4-yl)-[1,5]naphthyridin-4-yl]-urea] came in with a melting point of 219 to 220 °C. The 50% inhibitory concentration (IC50) at Aurora-B (setting [1]) came to 0.164 µM. Also, at cRaf-Mek1-Erk2, the IC50 worked out at 12.8 µM. In addition, at Erk2, the IC50 was greater than 31.6 µM.

Take `Cn1cc(-c2cnc3c(NC(=O)NCCc4ccccc4)ccnc3c2)cn1` [Compound 33, 1-[7-(1-Methyl-1H-pyrazol-4-yl)-[1,5]naphthyridin-4-yl]-3-phenethyl-urea]: the melting point was 222 to 223 °C. The IC50 on Aurora-B (setting [1]) amounted to 0.086 µM. In addition, the half-inhibitory concentration (IC50) on cRaf-Mek1-Erk2 was 16.6 µM. On Erk2, the half-maximal inhibitory concentration (IC50) is greater than 100 µM.

Take `Cn1cc(-c2cnc3c(NC(=O)NC4CCCC4)ccnc3c2)cn1` [Compound 34, 1-Cyclopentyl-3-[7-(1-methyl-1H-pyrazol-4-yl)-[1,5]naphthyridin-4-yl]-urea]: the melting point was in the range of 207 to 208 °C. Further, at Aurora-B (setting [1]), the IC50 came to 0.108 µM. Further, the IC50 on cRaf-Mek1-Erk2 came out at 0.676 µM. Further, at Erk2, the half-maximal inhibitory concentration (IC50) stood at 4.08 µM.

On to `O=C(Nc1ccnc2cc(-c3cn[nH]c3)cnc12)NC1CC1` [Compound 35, 1-Cyclopropyl-3-[7-(1H-pyrazol-4-yl)-[1,5]naphthyridin-4-yl]-urea], for which the melting point lay within 229 to 231 °C. Besides, at Aurora-B (setting [1]), the half-maximal inhibitory concentration (IC50) amounted to 0.085 µM. The IC50 at cRaf-Mek1-Erk2 stood at 4.65 µM. The IC50 against Erk2 was greater than 100 µM.

On to `O=C(Nc1ccnc2cc(-c3ccsc3)cnc12)NC1CC1` [Compound 36, 1-Cyclopropyl-3-(7-thiophen-3-yl-[1,5]naphthyridin-4-yl)-urea], for which the melting point lay within 228 to 229 °C. The half-inhibitory concentration (IC50) on Aurora-B (setting [1]) worked out at 0.103 µM. Moreover, the IC50 at cRaf-Mek1-Erk2 amounted to 3.85 µM. Also, at Erk2, the 50% inhibitory concentration (IC50) was greater than 100 µM.

Take `O=C(Nc1ccnc2cc(-c3ccnc(F)c3)cnc12)NC1CC1` [Compound 37, 1-Cyclopropyl-3-[7-(2-fluoro-pyridin-4-yl)-[1,5]naphthyridin-4-yl]-urea]: the melting point fell in the range of 226 to 229 °C. Moreover, at Aurora-B (setting [1]), the half-maximal inhibitory concentration (IC50) was 0.935 µM. On cRaf-Mek1-Erk2, the IC50 was 10.3 µM. Moreover, the IC50 against Erk2 is greater than 100 µM.

As to `O=C(Nc1ccnc2cc(-c3cnn(CCN4CCOCC4)c3)cnc12)NC1CC1` [Compound 38, 1-Cyclopropyl-3-{7-[1-(2-morpholin-4-yl-ethyl)-1H-pyrazol-4-yl]-[1,5]naphthyridin-4-yl}-urea], the melting point fell in the range of 127 to 129 °C. Besides, the concentration for half-maximal inhibition (IC50) at Aurora-B (setting [1]) is 0.028 µM. The 50% inhibitory concentration (IC50) on Aurora-B (read-out: IC50 values against Aurora-B) was less than 0.1 µM. Further, the IC50 on cRaf-Mek1-Erk2 amounted to 2.81 µM. On Erk2, this compound displayed an IC50 greater than 100 µM.

Consider `O=C(Nc1ccnc2cc(-c3ccccc3)cnc12)NC1CC1` [Compound 39, 1-Cyclopropyl-3-(7-phenyl-[1,5]naphthyridin-4-yl)-urea], for which the melting point was in the range of 188 to 190 °C. Further, the IC50 at Aurora-B (setting [1]) was 0.889 µM. Besides, the IC50 on cRaf-Mek1-Erk2 is 20.3 µM. Further, the 50% inhibitory concentration (IC50) on Erk2 is greater than 100 µM.

`O=C(Nc1ccnc2cc(-c3ccc4[nH]ccc4c3)cnc12)NC1CC1` [Compound 40, 1-Cyclopropyl-3-[7-(1H-indol-5-yl)-[1,5]naphthyridin-4-yl]-urea] displayed a melting point of 214 to 215 °C. The half-inhibitory concentration (IC50) on Aurora-B (setting [1]) turned out to be 2.12 µM. Also, the half-inhibitory concentration (IC50) at cRaf-Mek1-Erk2 is greater than 100 µM. The same compound showed an IC50 at Erk2 greater than 100 µM.

As a reminder, the IC50 is the point on the concentration scale where inhibition reaches its midpoint. Usually melting point stands for the temperature, or range, at which the solid turns liquid.

(Values after patent US8461178B2, “Naphthyridine derivatives and the use thereof as kinase inhibitors” (Aeterna Zentaris GmbH, priority 2009, dated 2013).)
